Publication PMC7909954 (eLife, 2021)
Where “and” joins values, the source holds several entries; their conditions need not be identical. Equal values may be shown once. Read-outs that look alike come from different tables or passages of the source.

Tests used:
[1] = molecular target: T1, rKOR (Rattus norvegicus, UniProt P34975); experiment: cell-based; details: HEK-293T, read-out: Emax% arrestin recruitment (BRET) rKOR
[2] = molecular target: T2, DOR (Homo sapiens, UniProt P41143); experiment: cell-based; details: for EC50: EC50 cAMP inhibition hDOR; for Emax: HEK-293T, read-out: Emax% cAMP inhibition hDOR
[3] = molecular target: T3, KOR (Homo sapiens, UniProt P41145); experiment: cell-based; details: for EC50: EC50 arrestin recruitment (Tango) hKOR; for Emax: HTLA, read-out: Emax% arrestin recruitment (Tango) hKOR
[4] = molecular target: T4, MOR (Homo sapiens, UniProt P35372); experiment: cell-based; details: for Emax: HEK-293T, read-out: Emax% cAMP inhibition hMOR
[5] = molecular target: T5, mMOR (Mus musculus, UniProt P42866); assay type: cell-based; set-up: expressed in transfected cells; host or cells: HEK-293T
[6] = molecular target: T5, mMOR; experiment: biochemical
[7] = molecular target: T6, mDOR (Mus musculus, UniProt P32300); experiment: cell-based; details: for EC50: EC50 arrestin recruitment (BRET) mDOR; for Emax: HEK-293T, read-out: Emax% arrestin recruitment (BRET) mDOR
[8] = molecular target: T7, mKOR (Mus musculus, UniProt P33534); experiment: biochemical; details: for EC50: EC50 mKOR [35S]GTPγS, ± SEM; for Emax: read-out: Emax mKOR [35S]GTPγS
[9] = molecular target: T5, mMOR; experiment: cell-based; details: for Emax: HEK-293T, read-out: Emax% G protein activation (BRET) mMOR
[10] = molecular target: T1, rKOR; experiment: cell-based; details: HEK-293T, read-out: Emax% G protein activation (BRET) rKOR
[11] = molecular target: T4, MOR
[12] = molecular target: T7, mKOR; experiment: biochemical
[13] = molecular target: T3, KOR; experiment: cell-based
[14] = molecular target: T2, DOR; experiment: cell-based; details: for EC50: EC50 arrestin recruitment hDOR, Tango; for Emax: HTLA, read-out: Emax% arrestin recruitment hDOR
[15] = molecular target: T6, mDOR; experiment: cell-based; details: for EC50: EC50 G protein activation (BRET) mDOR; for Emax: HEK-293T, read-out: Emax% G protein activation (BRET) mDOR
[16] = molecular target: T6, mDOR; experiment: biochemical; details: read-out: Emax mDOR [35S]GTPγS
[17] = molecular target: T1, rKOR
[18] = molecular target: T5, mMOR; experiment: biochemical; details: for EC50: EC50 mMOR [35S]GTPγS, ± SEM; for Emax: read-out: Emax mMOR [35S]GTPγS
[19] = molecular target: T4, MOR; experiment: cell-based; details: for Emax: HTLA, read-out: Emax% arrestin recruitment (Tango) hMOR
[20] = molecular target: T3, KOR; details: for Bias factor (cAMP-Tango) hKOR: >1 G protein bias, <1 arrestin bias; for Bias factor (cAMP-Tango) hKOR / ΔlogRA Tango hKOR / ΔlogRA cAMP hKOR: vs U50,488h; for Log RA cAMP hKOR / LogRA Tango hKOR: transduction coefficient log(T/KA)
[21] = molecular target: T5, mMOR; experiment: cell-based; set-up: expressed in transfected cells; host or cells: HEK-293T
[22] = EC50 G protein activation (BRET) mMOR

T6 sequence (P32300 whole entry): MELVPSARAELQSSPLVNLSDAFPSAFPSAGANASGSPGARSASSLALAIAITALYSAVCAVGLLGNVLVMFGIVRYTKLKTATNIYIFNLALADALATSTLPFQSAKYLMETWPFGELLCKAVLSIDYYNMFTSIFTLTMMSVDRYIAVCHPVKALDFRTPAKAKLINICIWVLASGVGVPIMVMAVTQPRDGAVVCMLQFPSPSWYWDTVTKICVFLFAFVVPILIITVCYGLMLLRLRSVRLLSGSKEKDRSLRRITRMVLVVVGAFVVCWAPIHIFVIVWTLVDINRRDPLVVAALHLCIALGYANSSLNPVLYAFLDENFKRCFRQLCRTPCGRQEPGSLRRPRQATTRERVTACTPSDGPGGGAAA
T1 sequence (P34975 whole entry): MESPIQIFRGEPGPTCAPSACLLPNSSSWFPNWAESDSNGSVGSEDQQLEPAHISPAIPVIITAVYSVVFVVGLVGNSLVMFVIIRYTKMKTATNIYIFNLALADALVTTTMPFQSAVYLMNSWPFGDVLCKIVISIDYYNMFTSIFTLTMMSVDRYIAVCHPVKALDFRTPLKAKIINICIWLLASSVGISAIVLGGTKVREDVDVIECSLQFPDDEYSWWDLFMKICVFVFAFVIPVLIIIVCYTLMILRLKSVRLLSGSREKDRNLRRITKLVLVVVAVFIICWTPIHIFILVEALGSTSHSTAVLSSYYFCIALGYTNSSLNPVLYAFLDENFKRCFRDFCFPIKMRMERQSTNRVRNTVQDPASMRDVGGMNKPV
T7 sequence (P33534 whole entry): as the sequence (P34975 whole entry) above, with E11D, A17S, P51S, V308A counted along it
T4 sequence (P35372 whole entry): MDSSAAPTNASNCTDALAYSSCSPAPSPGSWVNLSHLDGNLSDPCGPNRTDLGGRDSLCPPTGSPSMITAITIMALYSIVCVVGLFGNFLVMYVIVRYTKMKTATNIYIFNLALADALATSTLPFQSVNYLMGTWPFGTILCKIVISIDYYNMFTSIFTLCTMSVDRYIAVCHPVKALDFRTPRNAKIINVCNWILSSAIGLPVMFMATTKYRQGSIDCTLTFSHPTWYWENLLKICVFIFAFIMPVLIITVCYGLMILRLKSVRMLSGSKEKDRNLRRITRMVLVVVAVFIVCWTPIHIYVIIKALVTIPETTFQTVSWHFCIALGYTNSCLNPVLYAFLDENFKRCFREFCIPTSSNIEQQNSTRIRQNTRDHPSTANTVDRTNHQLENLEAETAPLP
T5 sequence (P42866 whole entry): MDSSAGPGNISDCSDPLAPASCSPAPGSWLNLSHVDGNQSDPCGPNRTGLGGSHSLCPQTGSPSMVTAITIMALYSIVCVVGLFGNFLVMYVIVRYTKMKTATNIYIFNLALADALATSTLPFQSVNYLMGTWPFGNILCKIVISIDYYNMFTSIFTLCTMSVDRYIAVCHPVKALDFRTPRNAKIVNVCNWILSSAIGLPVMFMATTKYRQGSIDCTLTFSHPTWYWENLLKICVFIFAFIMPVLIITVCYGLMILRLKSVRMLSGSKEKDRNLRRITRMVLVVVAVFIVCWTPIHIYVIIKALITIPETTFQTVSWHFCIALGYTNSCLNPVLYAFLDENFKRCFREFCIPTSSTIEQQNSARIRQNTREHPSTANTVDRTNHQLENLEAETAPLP
T2 sequence (P41143 whole entry): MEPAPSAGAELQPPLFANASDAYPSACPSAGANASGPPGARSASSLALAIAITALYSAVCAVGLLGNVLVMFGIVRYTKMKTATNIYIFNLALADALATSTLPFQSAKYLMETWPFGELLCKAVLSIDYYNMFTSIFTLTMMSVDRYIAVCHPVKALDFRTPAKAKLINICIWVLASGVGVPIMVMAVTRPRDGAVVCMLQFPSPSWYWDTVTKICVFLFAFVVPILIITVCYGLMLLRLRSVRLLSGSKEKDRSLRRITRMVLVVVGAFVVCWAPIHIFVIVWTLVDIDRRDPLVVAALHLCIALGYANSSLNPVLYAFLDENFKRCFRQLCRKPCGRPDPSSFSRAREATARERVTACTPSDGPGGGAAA
T3 sequence (P41145 whole entry): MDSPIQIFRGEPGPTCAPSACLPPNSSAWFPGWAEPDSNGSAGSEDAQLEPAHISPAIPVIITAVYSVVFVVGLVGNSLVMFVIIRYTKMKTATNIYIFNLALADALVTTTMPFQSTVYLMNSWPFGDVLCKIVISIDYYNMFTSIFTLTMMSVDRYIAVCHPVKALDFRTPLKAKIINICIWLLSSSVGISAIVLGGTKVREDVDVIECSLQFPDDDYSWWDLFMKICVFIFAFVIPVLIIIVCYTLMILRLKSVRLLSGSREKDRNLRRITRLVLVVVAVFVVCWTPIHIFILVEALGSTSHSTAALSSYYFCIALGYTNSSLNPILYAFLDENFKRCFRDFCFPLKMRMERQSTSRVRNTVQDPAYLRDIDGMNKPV

Work on O=C(NC1C=CC2C3Cc4ccc(O)c5c4C2(CCN3CC2CC2)C1O5)c1cccc(I)c1 (centres unmarked) [MP1104] yielded an Emax [1] of 89 ± 2.6%, an EC50 [2] of 0.4 nM and an Emax [2] of 99 ± 1.1%. For the same molecule, the EC50 [3] was 0.0394 nM, the Emax [3] was 117 ± 2% and the EC50 ([4]; EC50 cAMP inhibition hMOR) was 0.074 nM. For the same molecule, the Emax [4] was 94 ± 1%, the “Bias factor (BRETG-BRETArr) mMOR” value [5] was 0.11 and the “Log RA BRET-G mMOR” value [5] was 8.917±0.12. The “LogRA BRET-Arr mMOR” value [5] was 9.196±0.06, the “ΔlogRA BRET-G mMOR” value [5] was 0.357±0.173 and the “ΔlogRA BRET-arr mMOR” value [5] was 1.323±0.09. For the same molecule, the “ΔΔlog RA (BRETG-BRETArr) mMOR” value [5] was -0.966±0.195, the Ki [6] was 0.021 nM and the EC50 [7] was 26 nM. The Emax [7] was 40 ± 1.7%, the EC50 [8] was 0.027 ± 0.002 nM and the Emax [8] was 104 ± 2%. For the same molecule, the EC50 [9, 22] was 0.66 nM, the Emax [9] was 62 ± 2% and the Emax [10] was 93 ± 1%. For the same molecule, the “Bias factor (cAMP-Tango) hMOR” value [11] was 0.58, the “Log RA cAMP hMOR” value [11] was 10.12±0.009 and the “LogRA Tango hMOR” value [11] was 9.18±0.013. The “ΔlogRA Tango hMOR” value [11] was 1.26±0.019, the “ΔlogRA cAMP hMOR” value [11] was 1.018±0.012 and the “ΔΔlog RA (cAMP-Tango) hMOR” value [11] was -0.24±0.022. For the same molecule, the Ki [12] was 0.0064 nM, the EC50 ([13]; EC50 cAMP inhibition hKOR) was 0.00327 nM and the EC50 [14] was 3.73 nM. The Emax [14] was 189 ± 5.5%, the EC50 [15] was 1.4 nM and the Emax [15] was 91 ± 1.7%. For the same molecule, the Emax [16] was 88%, the “Log RA BRET-G rKOR” value [17] was 10.07±0.047 and the “LogRA BRET-Arr rKOR” value [17] was 8.84±0.033. For the same molecule, the “ΔΔlog RA (BRETG-BRETArr) rKOR” value [17] was -0.64±0.079, the “Bias factor (BRETG-BRETArr) rKOR” value ([17]; vs U50,488h) was 0.23 and the “ΔlogRA BRET-G rKOR” value ([17]; vs U50,488h) was 1.067±0.064. The “ΔlogRA BRET-arr rKOR” value ([17]; vs U50,488h) was 1.702±0.047, the EC50 [18] was 0.21 ± 0.03 nM and the Emax [18] was 103 ± 2%. The EC50 [19] was 0.573 nM, the Emax [19] was 90 ± 2.28% and the “ΔΔlog RA (cAMP-Tango) hKOR” value [20] was -0.81±0.055. The “Bias factor (cAMP-Tango) hKOR” value [20] was 0.15, the “Log RA cAMP hKOR” value [20] was 11.44±0.034 and the “LogRA Tango hKOR” value [20] was 10.45±0.019. For the same molecule, the “ΔlogRA Tango hKOR” value [20] was 2.16±0.027, the “ΔlogRA cAMP hKOR” value [20] was 1.35±0.048 and the EC50 [21] was 0.285 nM. It also gave an Emax ([21]; HEK-293T, read-out: Emax% arrestin recruitment (BRET) mMOR) of 53 ± 1.6%.
O=C(N[C@@H]1CC[C@@]2(O)C3Cc4ccc(O)cc4[C@@]2(CCN3CC2CC2)C1)c1cccc(I)c1 [MP1601, N-((4bR,6R,8aS)−11-(Cyclopropylmethyl)−3,8a-dihydroxy-6,7,8,8a,9,10-hexahydro-5H-9,4b-(epiminoethano)phenanthren-6-yl)−3-iodobenzamide] gave an Emax [1] of 37 ± 3%, an EC50 [2] of 2.76 nM and an Emax [2] of 106 ± 2.3%. It also gave an EC50 [3] of 3.23 nM, an Emax [3] of 107 ± 3% and an EC50 ([4]; EC50 cAMP inhibition hMOR) of 0.1 nM. It also gave an Emax [4] of 69 ± 1%, an EC50 ([4]; pEC50 cAMP inhibition hMOR) of 0.102 nM and a Ki [6] of 0.2 ± 0.01 nM. It also gave an EC50 [7] of 9 nM, an Emax [7] of 16 ± 1.4% and an EC50 [8] of 3 ± 0.7 nM. For the same molecule, the Emax [8] was 72 ± 4.5%, the EC50 [9, 22] was 2.2 nM and the Emax [9] was 49 ± 3%. For the same molecule, the EC50 ([9]; pEC50 G protein activation (BRET) mMOR) was 2.51 nM, the Emax [10] was 75 ± 3% and the “Bias factor (cAMP-Tango) hMOR” value [11] was 4. For the same molecule, the “Log RA cAMP hMOR” value [11] was 9.84±0.002, the “LogRA Tango hMOR” value [11] was 7.65±0.035 and the “ΔlogRA Tango hMOR” value [11] was 0.87±0.036. For the same molecule, the “ΔlogRA cAMP hMOR” value [11] was 1.44±0.002, the “ΔΔlog RA (cAMP-Tango) hMOR” value [11] was 0.57±0.036 and the Ki [12] was 2.13 ± 0.3 nM. For the same molecule, the Emax ([13]; HEK-293T, read-out: Emax% cAMP inhibition hKOR) was 109 ± 1%, the EC50 ([13]; pEC50 cAMP inhibition hKOR, ± SEM) was 0.174 nM and the EC50 [14] was 86.7 nM. It also gave an Emax [14] of 203 ± 5.4%, an EC50 [15] of 6.27 nM and an Emax [15] of 105 ± 6.7%. The Emax [16] was 67 ± 3.9%, the “Log RA BRET-G rKOR” value [17] was 7.917±0.018 and the “LogRA BRET-Arr rKOR” value [17] was 7.113±0.052. For the same molecule, the “ΔΔlog RA (BRETG-BRETArr) rKOR” value [17] was -0.006±0.057, the “ΔlogRA BRET-G rKOR” value ([17]; vs U50,488h) was 0.324±0.052 and the “ΔlogRA BRET-arr rKOR” value ([17]; vs U50,488h) was 0.33±0.052. For the same molecule, the EC50 [18] was 0.5 ± 0.2 nM, the Emax [18] was 45 ± 4.6% and the EC50 [19] was 4.02 nM. The Emax [19] was 27 ± 2%, the “ΔΔlog RA (cAMP-Tango) hKOR” value [20] was -0.282±0.023 and the “Bias factor (cAMP-Tango) hKOR” value [20] was 0.5 and 0.52. The “Log RA cAMP hKOR” value [20] was 9.85±0.014, the “LogRA Tango hKOR” value [20] was 8.51±0.009 and the “ΔlogRA Tango hKOR” value [20] was 0.097±0.012. For the same molecule, the “ΔlogRA cAMP hKOR” value [20] was -0.19±0.020.
